Reference: the supplement of paper PMC10307832

What was measured:
Assay in all cases: relative viability (nuclei count vs DMSO), 5 days (fraction); higher = more cells survive
A-427 = test system: A-427
Method in brief: (§1)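 Cells from lung cancer lines were seeded into 1536-well plates and, one day later, dosed by pin tool. Treatments were either a single drug or a fixed dose of an anchor drug with five library-drug doses (not always all listed) in √10 steps. After 5 days, nuclei were stained in a one-step fixation (final 0.05% Triton X-100, 1% formaldehyde, 1 ug/ml Hoechst) and counted on 4× images, and relative viability is the treated-to-vehicle nuclei ratio, as the median of duplicate plates.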

COR-L23 = test system: COR-L23
Method in brief: as §1

ChaGo-K-1 = test system: ChaGo-K-1
Method in brief: as §1

EKVX = test system: EKVX
Method in brief: as §1

EPLC-272H = test system: EPLC-272H
Method in brief: as §1

HCC-366 = test system: HCC-366
Method in brief: as §1

HCC-44 = test system: HCC-44
Method in brief: as §1

HCC-78 = test system: HCC-78
Method in brief: as §1

HOP-62 = test system: HOP-62
Method in brief: as §1

LOU-NH91 = test system: LOU-NH91
Method in brief: as §1

NCI-H1395 = test system: NCI-H1395
Method in brief: as §1

NCI-H1650 = test system: NCI-H1650
Method in brief: as §1

NCI-H1734 = test system: NCI-H1734
Method in brief: as §1

NCI-H1915 = test system: NCI-H1915
Method in brief: as §1

NCI-H2023 = test system: NCI-H2023
Method in brief: as §1

NCI-H2087 = test system: NCI-H2087
Method in brief: as §1

NCI-H3122 = test system: NCI-H3122
Method in brief: as §1

NCI-H358 = test system: NCI-H358
Method in brief: as §1

NCI-H596 = test system: NCI-H596
Method in brief: as §1

NCI-H650 = test system: NCI-H650
Method in brief: as §1

NCI-H661 = test system: NCI-H661
Method in brief: as §1

NCI-H838 = test system: NCI-H838
Method in brief: as §1

SK-MES-1 = test system: SK-MES-1
Method in brief: as §1

## O=C(O)CCCCC(CCSCc1ccccc1)SCc1ccccc1 (stereo not drawn) [CPI-613] + Nc1nc2[nH]cc(CCc3ccc(C(=O)N[C@@H](CCC(=O)O)C(=O)O)cc3)c2c(=O)[nH]1 [Pemetrexed] (partner 0.2 µM)
A-427; first compound 5 µM
  relative viability: 1.04
A-427; first compound 15.81 µM
  relative viability: 0.84
A-427; first compound 50 µM
  relative viability: 0.928
A-427; first compound 158.11 µM
  relative viability: 0.857
A-427; first compound 500 µM
  relative viability: 0.444
COR-L23; first compound 5 µM
  relative viability: 0.216
COR-L23; first compound 15.81 µM
  relative viability: 0.197
COR-L23; first compound 50 µM
  relative viability: 0.192
COR-L23; first compound 158.11 µM
  relative viability: 0.2
COR-L23; first compound 500 µM
  relative viability: 0.013
ChaGo-K-1; first compound 5 µM
  relative viability: 0.269
ChaGo-K-1; first compound 15.81 µM
  relative viability: 0.261
ChaGo-K-1; first compound 50 µM
  relative viability: 0.264
ChaGo-K-1; first compound 158.11 µM
  relative viability: 0.248
ChaGo-K-1; first compound 500 µM
  relative viability: 0.187
EKVX; first compound 5 µM
  relative viability: 0.373
EKVX; first compound 15.81 µM
  relative viability: 0.355
EKVX; first compound 50 µM
  relative viability: 0.306
EKVX; first compound 500 µM
  relative viability: 0.388
EPLC-272H; first compound 5 µM
  relative viability: 0.324
EPLC-272H; first compound 15.81 µM
  relative viability: 0.289
EPLC-272H; first compound 50 µM
  relative viability: 0.318
EPLC-272H; first compound 158.11 µM
  relative viability: 0.206
EPLC-272H; first compound 500 µM
  relative viability: 0.05
HCC-366; first compound 5 µM
  relative viability: 0.135
HCC-366; first compound 15.81 µM
  relative viability: 0.152
HCC-366; first compound 50 µM
  relative viability: 0.162
HCC-366; first compound 158.11 µM
  relative viability: 0.123
HCC-366; first compound 500 µM
  relative viability: 0.0078
HCC-44; first compound 5 µM
  relative viability: 0.635
HCC-44; first compound 15.81 µM
  relative viability: 0.61
HCC-44; first compound 50 µM
  relative viability: 0.592
HCC-44; first compound 158.11 µM
  relative viability: 0.622
HCC-44; first compound 500 µM
  relative viability: 0.53
HCC-78; first compound 15.81 µM
  relative viability: 0.898
HCC-78; first compound 50 µM
  relative viability: 0.906
HCC-78; first compound 158.11 µM
  relative viability: 0.874
HCC-78; first compound 500 µM
  relative viability: 0.913
HOP-62; first compound 5 µM
  relative viability: 0.321
HOP-62; first compound 15.81 µM
  relative viability: 0.309
HOP-62; first compound 50 µM
  relative viability: 0.272
HOP-62; first compound 158.11 µM
  relative viability: 0.163
HOP-62; first compound 500 µM
  relative viability: 0.12
LOU-NH91; first compound 5 µM
  relative viability: 0.389
LOU-NH91; first compound 15.81 µM
  relative viability: 0.332
LOU-NH91; first compound 50 µM
  relative viability: 0.367
LOU-NH91; first compound 158.11 µM
  relative viability: 0.399
LOU-NH91; first compound 500 µM
  relative viability: 0.233
NCI-H1395; first compound 5 µM
  relative viability: 0.942
NCI-H1395; first compound 15.81 µM
  relative viability: 0.671
NCI-H1395; first compound 50 µM
  relative viability: 0.868
NCI-H1395; first compound 158.11 µM
  relative viability: 0.723
NCI-H1395; first compound 500 µM
  relative viability: 0.598
NCI-H1650; first compound 5 µM
  relative viability: 0.346
NCI-H1650; first compound 15.81 µM
  relative viability: 0.376
NCI-H1650; first compound 50 µM
  relative viability: 0.393
NCI-H1650; first compound 158.11 µM
  relative viability: 0.151
NCI-H1650; first compound 500 µM
  relative viability: 0.0174
NCI-H1734; first compound 5 µM
  relative viability: 0.387
NCI-H1734; first compound 15.81 µM
  relative viability: 0.418
NCI-H1734; first compound 50 µM
  relative viability: 0.411
NCI-H1734; first compound 158.11 µM
  relative viability: 0.38
NCI-H1734; first compound 500 µM
  relative viability: 0.131
NCI-H1915; first compound 5 µM
  relative viability: 0.415
NCI-H1915; first compound 15.81 µM
  relative viability: 0.513
NCI-H1915; first compound 50 µM
  relative viability: 0.458
NCI-H1915; first compound 158.11 µM
  relative viability: 0.409
NCI-H1915; first compound 500 µM
  relative viability: 0.0364
NCI-H2023; first compound 5 µM
  relative viability: 0.233
NCI-H2023; first compound 15.81 µM
  relative viability: 0.2
NCI-H2023; first compound 50 µM
  relative viability: 0.175
NCI-H2023; first compound 158.11 µM
  relative viability: 0.0911
NCI-H2023; first compound 500 µM
  relative viability: 0.0103
NCI-H2087; first compound 5 µM
  relative viability: 0.642
NCI-H2087; first compound 15.81 µM
  relative viability: 0.662
NCI-H2087; first compound 50 µM
  relative viability: 0.689
NCI-H2087; first compound 158.11 µM
  relative viability: 0.574
NCI-H2087; first compound 500 µM
  relative viability: 0.007
NCI-H3122; first compound 5 µM
  relative viability: 0.19
NCI-H3122; first compound 15.81 µM
  relative viability: 0.194
NCI-H3122; first compound 50 µM
  relative viability: 0.181
NCI-H3122; first compound 158.11 µM
  relative viability: 0.181
NCI-H3122; first compound 500 µM
  relative viability: 0.153
NCI-H358; first compound 5 µM
  relative viability: 0.152
NCI-H358; first compound 15.81 µM
  relative viability: 0.172
NCI-H358; first compound 50 µM
  relative viability: 0.182
NCI-H358; first compound 158.11 µM
  relative viability: 0.156
NCI-H358; first compound 500 µM
  relative viability: 0.0253
NCI-H596; first compound 5 µM
  relative viability: 0.538
NCI-H596; first compound 15.81 µM
  relative viability: 0.48
NCI-H596; first compound 50 µM
  relative viability: 0.519
NCI-H596; first compound 158.11 µM
  relative viability: 0.352
NCI-H596; first compound 500 µM
  relative viability: 0.0295
NCI-H650; first compound 5 µM
  relative viability: 1.01
NCI-H650; first compound 15.81 µM
  relative viability: 0.821
NCI-H650; first compound 50 µM
  relative viability: 0.897
NCI-H650; first compound 158.11 µM
  relative viability: 0.641
NCI-H650; first compound 500 µM
  relative viability: 0.826
NCI-H661; first compound 5 µM
  relative viability: 0.887
NCI-H661; first compound 15.81 µM
  relative viability: 0.921
NCI-H661; first compound 50 µM
  relative viability: 0.863
NCI-H661; first compound 158.11 µM
  relative viability: 0.557
NCI-H661; first compound 500 µM
  relative viability: 0.131
NCI-H838; first compound 5 µM
  relative viability: 0.232
NCI-H838; first compound 15.81 µM
  relative viability: 0.229
NCI-H838; first compound 50 µM
  relative viability: 0.215
NCI-H838; first compound 158.11 µM
  relative viability: 0.149
NCI-H838; first compound 500 µM
  relative viability: 0.0989
SK-MES-1; first compound 5 µM
  relative viability: 0.975
SK-MES-1; first compound 15.81 µM
  relative viability: 0.807
SK-MES-1; first compound 50 µM
  relative viability: 0.737
SK-MES-1; first compound 158.11 µM
  relative viability: 0.17
SK-MES-1; first compound 500 µM
  relative viability: 0.104
